From patent US20250213530A1 (GH RESEARCH IRELAND LIMITED, priority 2022, published 2025)

Columns and labels:
[1] = system: patient with postpartum depression (PPD); experiment: Clinical trial of inhaled 5-MeO-DMT (IDR, 6 mg then 12 mg), Barkin Index of Maternal Functioning (BIMF); format: in vivo, human; conditions: one PPD patient
Excerpt: Maternal functioning can, for instance, be assessed using the Barkin Index of Maternal Functioning (BIMF). This index was designed to measure functioning in the year after childbirth. The BIMF is a 20-item self-report measure of functioning. Each item is assigned a score between 0 and 6 so that the maximum total score is 120. The higher the score, the better maternal functioning is rated.
The BIMF identifies the key functional domains of a mother during the postnatal period as: self-care, infant care, mother-child interaction, psychological wellbeing of the mother, social support, management, and adjustment.
(§1) The patient completed all planned visit days.

[2] = system: patient with postpartum depression (PPD); experiment: Clinical trial of inhaled 5-MeO-DMT (IDR, 6 mg then 12 mg), MADRS; format: in vivo, human; conditions: one PPD patient; for Total MADRS improvement / Total MADRS score: baseline 29
Excerpt: as §1

[3] = system: patient with postpartum depression (PPD); experiment: Clinical trial of inhaled 5-MeO-DMT (IDR, 6 mg then 12 mg), BPRS; format: in vivo, human; conditions: one PPD patient, baseline 6
Excerpt: as §1

[4] = system: patient with postpartum depression (PPD); experiment: Clinical trial of inhaled 5-MeO-DMT, safety and tolerability; format: in vivo, human; conditions: one PPD patient
Excerpt: as §1

[5] = Pharmacokinetics after inhalation of 5-MeO-DMT, LC-MS/MS

## COc1ccc2[nH]cc(CCN(C)C)c2c1 [5-MeO-DMT]
[1]; Day 7, Day 0 score 0
  BIMF item 19 (As time goes on, I am getting better at taking care of my baby) score: 1
[1]; Day 7, Day 0 score 3
  BIMF item 16 (I worry about how other people judge me (as a mother)) score: 5
[1]; Day 7, Day 0 score 4
  BIMF item 13 (I am taking good care of my physical needs) score: 5
[1]; Day 7, Day 0 score 5
  BIMF item 5 (I am able to relax and enjoy time with my baby) score: 6
  BIMF item 9 (I am getting enough encouragement from other people) score: 6
  BIMF item 10 (I trust my own feelings (instincts) when it comes to taking care of my baby) score: 6
  BIMF item 11 (I take a little time each week to do something for myself) score: 6
  BIMF item 17 (I am able to take care of my baby and my other responsibilities) score: 5
[1]; Day 7, Day 0 score 5, maximum possible 12
  BIMF functional domain Adjustment score: 6
[1]; Day 7, Day 0 score 6
  BIMF item 3 (I am comfortable with the way I've chosen to feed my baby) score: 6
  BIMF item 6 (There are people in my life that I can trust to care for my baby when I need a break) score: 6
  BIMF item 8 (I am getting enough adult interaction) score: 6
  BIMF item 12 (I am taking good care of my baby's physical needs) score: 6
  BIMF item 14 (I make good decisions about my baby's health and well being) score: 6
  BIMF item 20 (I am satisfied with the job I am doing as a new mother) score: 5
[1]; Day 7, Day 0 score 9, maximum possible 18
  BIMF functional domain Self Care score: 13
[1]; Day 7, Day 0 score 12, maximum possible 12
  BIMF functional domain Infant Care score: 12
[1]; Day 7, Day 0 score 15, maximum possible 18
  BIMF functional domain Mother-Child Interaction score: 17
[1]; Day 7, Day 0 score 17, maximum possible 18
  BIMF functional domain Social Support score: 18
[1]; Day 7, Day 0 score 28, maximum possible 36
  BIMF functional domain Management score: 33
[1]; Day 7, Day 0 score 44, maximum possible 60
  BIMF functional domain Psychological Well-being score: 53
[1]; Day 7, from 92 to 105
  BIMF total score improvement: 14%
[1]; Day 7 vs Day 0
  BIMF TOTAL Δ (Day 7): 13
  BIMF functional domain Adjustment % Improvement: 20.00%
  BIMF functional domain Infant Care % Improvement: 0.00%
  BIMF functional domain Management % Improvement: 18%
  BIMF functional domain Self Care % Improvement: 44%
  BIMF item 3 (I am comfortable with the way I've chosen to feed my baby) Δ (Day 7): 0
  BIMF item 5 (I am able to relax and enjoy time with my baby) Δ (Day 7): 1
  BIMF item 6 (There are people in my life that I can trust to care for my baby when I need a break) Δ (Day 7): 0
  BIMF item 8 (I am getting enough adult interaction) Δ (Day 7): 0
  BIMF item 9 (I am getting enough encouragement from other people) Δ (Day 7): 1
  BIMF item 10 (I trust my own feelings (instincts) when it comes to taking care of my baby) Δ (Day 7): 1
  BIMF item 11 (I take a little time each week to do something for myself) Δ (Day 7): 1
  BIMF item 12 (I am taking good care of my baby's physical needs) Δ (Day 7): 0
  BIMF item 13 (I am taking good care of my physical needs) Δ (Day 7): 1
  BIMF item 14 (I make good decisions about my baby's health and well being) Δ (Day 7): 0
  BIMF item 17 (I am able to take care of my baby and my other responsibilities) Δ (Day 7): 0
  BIMF item 19 (As time goes on, I am getting better at taking care of my baby) Δ (Day 7): 1
  BIMF item 20 (I am satisfied with the job I am doing as a new mother) Δ (Day 7): −1
[2]
  standard criteria for MADRS remission (MADRS total score equal or less than 10): fulfilled
  standard criteria for MADRS response (at least 50% improvement from baseline): fulfilled
[2]; 2 hr
  Total MADRS improvement: 24
  Total MADRS score: 5
[2]; Day 1
  Total MADRS improvement: 29
  Total MADRS score: 0
[2]; Day 7
  Total MADRS improvement: 28
  Total MADRS score: 1
[2]; IDR 6 mg then 12 mg
  time to clinical remission after administration: ≤ 2 h
[3]; Day 1
  BPRS Tension improvement: 5
[3]; Discharge
  BPRS Tension improvement: 5
[4]
  ECG (at 3 hours), safety laboratory analyses (at 7 days), CADSS (at 3 hours, 1 day and 7 days): unremarkable
  reported adverse events (cramping left abdominal pain and headache, both on Day 0): mild, short-lasting and resolved spontaneously
  tolerability of the inhalation procedure: well tolerated with no inhalation-related adverse events
[4]; shortly after administration, no other noteworthy changes
  changes in vital parameters: temporary, clinically non-relevant increase in heart rate and blood pressure
[5]; 10 minutes after administration, whole dose range tested (6 mg, 12 mg, 18 mg)
  plasma concentration as % of Cmax: ≤ 10 % of Cmax
[5]; after 2 hours, whole dose range tested (6 mg, 12 mg, 18 mg)
  plasma concentration as % of Cmax: ≤ 1 % of Cmax
[5]; after 3 hours, whole dose range tested (6 mg, 12 mg, 18 mg)
  detectability in the plasma: no longer detectable
[5]; compared with the single dose results
  pharmacokinetic measurements, uptitration dosing schemes: Substantially similar results
[5]; repeated administration within a time frame of 1 to 4 hours
  accumulation upon repeated administration: No accumulation
